For this assay, the target named is T1, TRPV4 (Canis lupus, UniProt A0A8I3PAV3).
T1 construct: endogenous channel in MDCK cells
In words: whole-cell patch clamp, block of GSK1016790A-evoked currents in MDCK cells. The class given is cell-based.

T1 sequence (A0A8I3PAV3 1-828): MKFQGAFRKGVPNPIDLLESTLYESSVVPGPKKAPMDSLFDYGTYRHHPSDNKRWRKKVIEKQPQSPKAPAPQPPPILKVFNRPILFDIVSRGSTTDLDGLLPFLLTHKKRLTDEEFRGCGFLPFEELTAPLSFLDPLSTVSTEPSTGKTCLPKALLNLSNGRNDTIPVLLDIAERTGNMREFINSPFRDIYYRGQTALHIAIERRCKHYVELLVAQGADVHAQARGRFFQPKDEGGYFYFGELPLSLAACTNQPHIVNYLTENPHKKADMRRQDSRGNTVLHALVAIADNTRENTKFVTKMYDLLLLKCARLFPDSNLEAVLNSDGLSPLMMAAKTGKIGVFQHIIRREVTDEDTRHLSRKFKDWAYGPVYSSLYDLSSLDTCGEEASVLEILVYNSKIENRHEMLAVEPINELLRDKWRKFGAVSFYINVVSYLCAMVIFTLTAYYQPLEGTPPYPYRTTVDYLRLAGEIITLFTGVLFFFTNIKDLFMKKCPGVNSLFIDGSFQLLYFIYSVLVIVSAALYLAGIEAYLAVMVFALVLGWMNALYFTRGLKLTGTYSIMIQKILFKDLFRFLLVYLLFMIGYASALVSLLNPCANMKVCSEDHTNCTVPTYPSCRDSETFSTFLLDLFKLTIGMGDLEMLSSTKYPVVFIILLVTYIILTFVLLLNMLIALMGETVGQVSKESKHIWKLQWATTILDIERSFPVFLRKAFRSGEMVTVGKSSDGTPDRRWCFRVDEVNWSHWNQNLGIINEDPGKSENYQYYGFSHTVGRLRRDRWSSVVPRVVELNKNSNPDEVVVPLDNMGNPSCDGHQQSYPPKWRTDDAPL

As for `Cc1c(C(=O)Nc2cccc(C(F)(F)F)c2)cc(-c2ccccc2)n1CCCN1CCOCC1` [HC, HC-067047], the “whole-cell patch clamp, block of GSK1016790A-evoked currents in MDCK cells” value is given as “the addition of HC significantly decreases the transient enhancement of dIm induced by GSK alone”.

(Values after publication PMC10705919 (International Journal of Molecular Sciences, 2023).)
